System: 874868-142-R-J2-PDC complex spheroids, growth % test/control
Experiment: Anticancer human tumor 874868-142-R-J2-PDC patient-derived head and neck squamous carcinoma cell line growth inhibition [CLK]
Details: for IC50: curve of first compound; for viability, T/C: stronger effect = lower value
In short: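 Multi-cell-type spheroids combined patient-derived tumor cells with HUVEC endothelial cells and human mesenchymal stem cells. Paired agents were dosed in half-log steps down from about clinical Cmax, or from 10 microM where Cmax was unknown.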

[1] = second compound 0.0316 µM, first compound 0.0316 µM
[2] = second compound 0.0316 µM, first compound 0.1 µM
[3] = second compound 0.0316 µM, first compound 0.316 µM
[4] = second compound 0.0316 µM, first compound 1 µM
[5] = second compound 0.0316 µM, first compound 3.16 µM
[6] = second compound 0.0316 µM, first compound 10 µM
[7] = second compound 0.1 µM, first compound 0.0316 µM
[8] = second compound 0.1 µM, first compound 0.1 µM
[9] = second compound 0.1 µM, first compound 0.316 µM
[10] = second compound 0.1 µM, first compound 1 µM
[11] = second compound 0.1 µM, first compound 3.16 µM
[12] = second compound 0.1 µM, first compound 10 µM
[13] = second compound 0.316 µM, first compound 0.0316 µM
[14] = second compound 0.316 µM, first compound 0.1 µM
[15] = second compound 0.316 µM, first compound 0.316 µM
[16] = second compound 0.316 µM, first compound 1 µM
[17] = second compound 0.316 µM, first compound 3.16 µM
[18] = second compound 0.316 µM, first compound 10 µM
[19] = second compound 1 µM, first compound 0.0316 µM
[20] = second compound 1 µM, first compound 0.1 µM
[21] = second compound 1 µM, first compound 0.316 µM
[22] = second compound 1 µM, first compound 1 µM
[23] = second compound 1 µM, first compound 3.16 µM
[24] = second compound 1 µM, first compound 10 µM
[25] = second compound 3.16 µM, first compound 0.0316 µM
[26] = second compound 3.16 µM, first compound 0.1 µM
[27] = second compound 3.16 µM, first compound 0.316 µM
[28] = second compound 3.16 µM, first compound 1 µM
[29] = second compound 3.16 µM, first compound 3.16 µM
[30] = second compound 3.16 µM, first compound 10 µM
[31] = second compound 10 µM, first compound 0.0316 µM
[32] = second compound 10 µM, first compound 0.1 µM
[33] = second compound 10 µM, first compound 0.316 µM
[34] = second compound 10 µM, first compound 1 µM
[35] = second compound 10 µM, first compound 3.16 µM
[36] = second compound 10 µM, first compound 10 µM
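Also: spheroids exposed to the compounds for 7 days.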
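For viability, T/C in this document: 100% = DMSO vehicle control viability.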

CC(=O)O[C@H]1C(=O)[C@@]2(C)[C@H]([C@H](OC(=O)c3ccccc3)[C@]3(O)C[C@H](OC(=O)[C@H](O)[C@@H](NC(=O)c4ccccc4)c4ccccc4)C(C)=C1C3(C)C)[C@]1(OC(C)=O)CO[C@@H]1C[C@@H]2O + CNC(=O)c1ccc(Nc2nc(OC3CCCC3)c3c(-c4ccc5nc(C)oc5c4)c[nH]c3n2)c(OC)c1
IC50 (second compound 0.0316 µM): < 31.6 nM
IC50 (second compound 0.1 µM): < 31.6 nM
IC50 (second compound 0.316 µM): > 10000 nM
IC50 (second compound 1 µM): < 31.6 nM
IC50 (second compound 3.16 µM): < 31.6 nM
IC50 (second compound 10 µM): < 31.6 nM
viability, T/C [1]: 47.4%
viability, T/C [2]: 33.5%
viability, T/C [3]: 39.4%
viability, T/C [4]: 41.9%
viability, T/C [5]: 48.9%
viability, T/C [6]: 66.2%
viability, T/C [7]: 53.9%
viability, T/C [8]: 43.9%
viability, T/C [9]: 50%
viability, T/C [10]: 55.7%
viability, T/C [11]: 62.7%
viability, T/C [12]: 66.5%
viability, T/C [13]: 54.3%
viability, T/C [14]: 65.1%
viability, T/C [15]: 72.6%
viability, T/C [16]: 66.5%
viability, T/C [17]: 77.6%
viability, T/C [18]: 70.1%
viability, T/C [19]: 47.1%
viability, T/C [20]: 49.9%
viability, T/C [21]: 53%
viability, T/C [22]: 62.3%
viability, T/C [23]: 52.6%
viability, T/C [24]: 61.9%
viability, T/C [25]: 47.8%
viability, T/C [26]: 45.7%
viability, T/C [27]: 52.4%
viability, T/C [28]: 51%
viability, T/C [29]: 57.5%
viability, T/C [30]: 64.3%
viability, T/C [31]: 43.7%
viability, T/C [32]: 53%
viability, T/C [33]: 58.3%
viability, T/C [34]: 52.4%
viability, T/C [35]: 57.6%
viability, T/C [36]: 50.5%

CCc1c2c(nc3ccc(O)cc13)-c1cc3c(c(=O)n1C2)COC(=O)[C@]3(O)CC + CNC(=O)c1ccc(Nc2nc(OC3CCCC3)c3c(-c4ccc5nc(C)oc5c4)c[nH]c3n2)c(OC)c1
IC50 (second compound 0.0316 µM): 11.8 nM
IC50 (second compound 0.1 µM): 3.98 nM
IC50 (second compound 0.316 µM): < 3.16 nM
IC50 (second compound 1 µM): < 3.16 nM
IC50 (second compound 3.16 µM): < 3.16 nM
IC50 (second compound 10 µM): < 3.16 nM
viability, T/C (second compound 0.0316 µM, first compound 0.00316 µM): 63.6%
viability, T/C (second compound 0.0316 µM, first compound 0.01 µM): 44%
viability, T/C [1]: 47.1%
viability, T/C [2]: 28%
viability, T/C [3]: 11.6%
viability, T/C [4]: 2.44%
viability, T/C (second compound 0.1 µM, first compound 0.00316 µM): 50.4%
viability, T/C (second compound 0.1 µM, first compound 0.01 µM): 47.8%
viability, T/C [7]: 35.7%
viability, T/C [8]: 28.2%
viability, T/C [9]: 16.6%
viability, T/C [10]: 2.97%
viability, T/C (second compound 0.316 µM, first compound 0.00316 µM): 42.9%
viability, T/C (second compound 0.316 µM, first compound 0.01 µM): 37.9%
viability, T/C [13]: 34.4%
viability, T/C [14]: 19.6%
viability, T/C [15]: 11.3%
viability, T/C [16]: 4.87%
viability, T/C (second compound 1 µM, first compound 0.00316 µM): 31%
viability, T/C (second compound 1 µM, first compound 0.01 µM): 26.8%
viability, T/C [19]: 15.1%
viability, T/C [20]: 11.6%
viability, T/C [21]: 7.96%
viability, T/C [22]: 1.98%
viability, T/C (second compound 3.16 µM, first compound 0.00316 µM): 24.7%
viability, T/C (second compound 3.16 µM, first compound 0.01 µM): 20.7%
viability, T/C [25]: 15.3%
viability, T/C [26]: 12.4%
viability, T/C [27]: 12.8%
viability, T/C [28]: 4.03%
viability, T/C (second compound 10 µM, first compound 0.00316 µM): 28.8%
viability, T/C (second compound 10 µM, first compound 0.01 µM): 21.6%
viability, T/C [31]: 14%
viability, T/C [32]: 11.2%
viability, T/C [33]: 9.57%
viability, T/C [34]: 9.34%

O=c1[nH]cc(F)c(=O)[nH]1 + CNC(=O)c1ccc(Nc2nc(OC3CCCC3)c3c(-c4ccc5nc(C)oc5c4)c[nH]c3n2)c(OC)c1
IC50 (second compound 0.0316 µM): > 10000 nM
IC50 (second compound 0.1 µM): 2010 nM
IC50 (second compound 0.316 µM): 461 nM
IC50 (second compound 1 µM): < 31.6 nM
IC50 (second compound 3.16 µM): < 31.6 nM
IC50 (second compound 10 µM): < 31.6 nM
viability, T/C [1]: 81.8%
viability, T/C [2]: 86%
viability, T/C [3]: 71.7%
viability, T/C [4]: 61.1%
viability, T/C [5]: 54.7%
viability, T/C [6]: 50.7%
viability, T/C [7]: 74%
viability, T/C [8]: 68.9%
viability, T/C [9]: 75.8%
viability, T/C [10]: 56.4%
viability, T/C [11]: 50.2%
viability, T/C [12]: 41.5%
viability, T/C [13]: 54%
viability, T/C [14]: 59.2%
viability, T/C [15]: 55.9%
viability, T/C [16]: 34.9%
viability, T/C [17]: 39.4%
viability, T/C [18]: 39.2%
viability, T/C [19]: 43.5%
viability, T/C [20]: 48.6%
viability, T/C [21]: 40.1%
viability, T/C [22]: 29.4%
viability, T/C [23]: 30.1%
viability, T/C [24]: 26%
viability, T/C [25]: 34.9%
viability, T/C [26]: 39.7%
viability, T/C [27]: 29%
viability, T/C [28]: 28.4%
viability, T/C [29]: 28.7%
viability, T/C [30]: 31.9%
viability, T/C [31]: 40.2%
viability, T/C [32]: 46%
viability, T/C [33]: 35.9%
viability, T/C [34]: 23.4%
viability, T/C [35]: 30.8%
viability, T/C [36]: 23.2%

From PubChem BioAssay AID2060601 (Molecular Pharmacology Branch, DTP, NCI, 2025)
